Results: the NIST ThermoML archive (doi:10.1021/je400536f)
± gives the expanded uncertainty stated by the source.

Columns and labels:
[1] = mn = molality of the nth substance listed, in mol/kg; conditions: 298.15 K, 100 kPa, Liquid, dip-type immersion conductivity cell
[2] = 298.15 K, 100 kPa, Liquid; for viscosity: Concentric cylinders viscometry; for mass density: Vibrating tube method

| SMILES | molar conductivity ([1]; m1 = 0.000795) [S·m2/mol] | molar conductivity ([1]; m1 = 0.001513) [S·m2/mol] | molar conductivity ([1]; m1 = 0.002025) [S·m2/mol] | molar conductivity ([1]; m1 = 0.002735) [S·m2/mol] | molar conductivity ([1]; m1 = 0.003295) [S·m2/mol] | molar conductivity ([1]; m1 = 0.003956) [S·m2/mol] | molar conductivity ([1]; m1 = 0.004802) [S·m2/mol] | molar conductivity ([1]; m1 = 0.005388) [S·m2/mol] | molar conductivity ([1]; m1 = 0.006053) [S·m2/mol] | molar conductivity ([1]; m1 = 0.007832) [S·m2/mol] | molar conductivity ([1]; m1 = 0.008798) [S·m2/mol] | viscosity [2] [mPa·s] | mass density [2] [kg/m3] | other results |
| --- | --- | --- | --- | --- | --- | --- | --- | --- | --- | --- | --- | --- | --- | --- |
| CCCC[N+](CCCC)(CCCC)CCCC.[O-][Cl+3]([O-])([O-])[O-] [tetrabutylammonium perchlorate] + CNC=O | 0.00449 ± 0.00012 | 0.00423 ± 0.00011 | 0.00407 ± 9.9e-05 | 0.00389 ± 9.6e-05 | 0.00371 ± 9e-05 | 0.00358 ± 8.1e-05 | 0.00342 ± 7.7e-05 | 0.00333 ± 7.4e-05 | 0.00323 ± 7.3e-05 | 0.00293 ± 6.6e-05 | 0.00279 ± 6.2e-05 |  |  | molar conductivity ([1]; m1 = 0.006823): 0.00309 ± 7e-05 S·m2/mol |
| C[N+](=O)[O-] [nitromethane] |  |  |  |  |  |  |  |  |  |  |  | 0.62 ± 0.06 | 1130.15 ± 6.9 |  |
| CCCC[N+](CCCC)(CCCC)CCCC.F[B-](F)(F)F [tetrabutylammonium tetrafluoroborate] + NC=O |  |  | 0.00192 ± 5.1e-05 |  |  |  |  |  |  |  |  |  |  | molar conductivity ([1]; m1 = 0.000829): 0.00215 ± 5.8e-05 S·m2/mol; molar conductivity ([1]; m1 = 0.001452): 0.00203 ± 5.6e-05 S·m2/mol; molar conductivity ([1]; m1 = 0.002632): 0.00183 ± 4.7e-05 S·m2/mol; molar conductivity ([1]; m1 = 0.003181): 0.00175 ± 4.5e-05 S·m2/mol; molar conductivity ([1]; m1 = 0.003782): 0.00167 ± 4.1e-05 S·m2/mol; molar conductivity ([1]; m1 = 0.00457): 0.00158 ± 3.9e-05 S·m2/mol; molar conductivity ([1]; m1 = 0.005291): 0.0015 ± 3.6e-05 S·m2/mol; molar conductivity ([1]; m1 = 0.006131): 0.00143 ± 3.4e-05 S·m2/mol; molar conductivity ([1]; m1 = 0.007056): 0.00134 ± 3.4e-05 S·m2/mol; molar conductivity ([1]; m1 = 0.007921): 0.00125 ± 3.3e-05 S·m2/mol; molar conductivity ([1]; m1 = 0.008482): 0.00119 ± 3.2e-05 S·m2/mol |
| NC=O [formamide] |  |  |  |  |  |  |  |  |  |  |  | 3.3 ± 0.1 | 1129.22 ± 6.9 |  |
| CCCC[N+](CCCC)(CCCC)CCCC.F[B-](F)(F)F [tetrabutylammonium tetrafluoroborate] + CNC=O | 0.00352 ± 9.3e-05 | 0.00331 ± 9e-05 | 0.00314 ± 8.1e-05 | 0.00299 ± 7.4e-05 | 0.00286 ± 6.9e-05 | 0.00275 ± 6.4e-05 | 0.00262 ± 6.1e-05 | 0.00253 ± 6.1e-05 | 0.0024 ± 5.6e-05 | 0.00216 ± 5e-05 | 0.00204 ± 4.7e-05 |  |  | molar conductivity ([1]; m1 = 0.007327): 0.00223 ± 5.2e-05 S·m2/mol |
